Data taken from article PMC5829097, “Designing Antibacterial Peptides with Enhanced Killing Kinetics” (Frontiers in Microbiology, 2018).
Marks after values point to notes of the source that are not given here. Square brackets hold non-standard residues; d marks the D form. Peptide text beside a SMILES is read from it. 12Ado = NCCCCCCCCCCCC(=O)O

Legend:
human RBCs = test: Cytotoxicity assay against human erythrocytes (hemolysis); type: cell-based; details: pH 7.4
Experimental: Hemolysis was determined by incubating 10% (v/v) suspension of human RBCs in PBS (pH 7.4) with different concentrations of peptides [BMAP28(1–18), P1, and P1m] ranging from 1.56 to 100 μM at 37°C for 1 h. RBCs incubated with 0.1% Triton X-100 was used as the positive control and RBCs incubated with PBS was used as blank. The incubated mixtures were centrifuged at 500 × g for 5 min. The hemolytic activity of the peptides was determined by measuring the absorbance of the supernatant at 541 nm. The percent hemolysis was calculated using the equation:
H=(absorbance of sample−absorbance of blank/absorbance of positive control−absorbance of blank)×100
The percentage hemolysis (H) was fitted using a Hill function with respect to the peptide concentration.
The % hemolysis was fitted using Hill equation to obtain n and K values. These values are also referred in Table 4 in the main text.

S. aureus ATCC 25923 = test: Killing kinetics assay (time-kill, first order death rate constant); type: cell-based, Staphylococcus aureus; details: for behavior of the kinetic (death rate) constant as a function of peptide concentration: S. aureus time-kill, concentrations up to 50 μM; for Hills coefficient of death rate constant vs peptide concentration (initial saturating phase) / half saturation constant of death rate constant vs peptide concentration (initial saturating phase): fit Equations 1-3, S. aureus ATCC 25923
Experimental: Overnight grown culture (S. aureus ATCC 25923) was diluted in fresh MH broth and allowed to grow to obtain OD600 nm of 0.8. The culture was diluted in MH broth to obtain a cell density of 10^5-10^6 c.f.u/ml and was incubated with the peptides at various concentrations within the MIC range for each peptide [BMAP28(1–18), P1, and P1m] till a highest concentration of 50 μM. Aliquots were drawn at specific time intervals and plated after dilution on MH agar plates. The plates were incubated at 37°C for 24 h to obtain viable colonies for calculating the initial death rates of the peptides. The kinetic rate constant was determined by evaluation of c.f.u count at various time points ranging from 10 to 45 min. First order death rate constant was determined by plotting log(c.f.u) vs. time and the slope of linear fit yielded the death rate constant. Four to five time points were used to determine the rate constant. Only two time points were considered for death rate constant at very high concentration (50 μM) as complete killing occurred in the first 15 min.
To further study the effect of mutation on behaviour of peptides, the first order rate constant for the death of S. aureus ATCC 25923 was determined by performing time-kill assays using BMAP28(1-18), P1 and P1m. The following equations were obtained by the fit.
In the first phase, the rate constant saturated to about 28.5 h^-1 up to a peptide concentration of 30µM. […] The behaviour of the rate constant was captured as a product of two functions, namely, an initial region represented by Hills Equation indicating a saturating behaviour, and exponential increase post saturation (Equation 1-3). […] A Hills coefficient greater than 2 indicates a sensitive response requiring only about less than 9 fold change in the concentration to reach saturation. But a lower half saturation constant for BMAP28(1-18) indicates higher affinity of binding of the peptides to the cell membrane for BMAP28(1-18) compared to that for P1m. […] This dramatic effect was caused due to a single change in the residue of an amino-acid. It may be possible that the second phase for P1 may occur at a higher concentration of peptide.
The initial rate constant was determined by fitting the first order death kinetics. The CFU (C) of the organism/cell was determined experimentally in time. The first order rate constant, k, was evaluated by linear fitting the equation given below: […]

[1] = system: Escherichia coli ATCC 8739; test: Antimicrobial assay, microdilution method (MIC; % death fitted to Hill equation); type: cell-based; details: for Hill coefficient n, Gram −ve (E. coli 8739): Hill fit of % death after 18 h incubation vs peptide concentration; for EC50: Hill fit of % death after 18 h incubation, peptide concentration for 50% death, peptides tested in μM, unit inferred, read-out: half saturation constant K, Gram −ve (E. coli 8739)
Experimental: (§1) Antimicrobial activity of peptides against Gram-positive (Staphylococcus aureus ATCC 25923, S. aureus ATCC 6538P) and Gram-negative (Escherichia coli ATCC 25922, E. coli ATCC 8739) bacteria were determined by microdilution method. Bacterial cultures were grown in Mueller–Hinton (MH) broth at 37°C for 18 h on a shaker to obtain an OD600 nm of 0.8. The cultures were diluted in MH broth to obtain a cell density of 10^5-10^6 c.f.u/ml. The peptides were serially diluted in MH broth. The serially diluted peptides were inoculated with bacterial cultures in 1:1 ratio in sterile 96-well microtiter plates. A bovine myeloid antimicrobial peptide, BMAP28(1–18), was used as the positive control. The peptides were tested for antimicrobial activity in the range from 1 to 100 μM. The MICs of the peptides were determined by OD600 nm measurements after 18 h of incubation at 37°C. Bacterial strains were purchased from National Collection of Industrial Microorganisms, National Chemical Laboratories, Pune, India. The percentage death evaluated for S. aureus ATCC 25923 and E. coli ATCC 8739 after 18 h incubation was fitted to a Hill equation and the parameters namely Hill coefficient (n) and the half-saturation constant (K) were evaluated (Details in Supplementary File).
(§2) The % death value after 18h incubation of the organisms (E. coli ATCC 8739 and S. aureus ATCC 25923) with the peptides was fitted using the Hill equation: […]
(§3) The percentage death was fitted to a sigmoidal input-output relationship through Hill's Equation as given below.
(§4) Here, Y is the normalized percentage death taking values in the range [0,1] and X is the concentration of the antimicrobial peptide. The data for value of Y was obtained through experiments. It can be noted that the Hill's Equation has two parameters namely, n and K, Hill's Coefficient and Half Saturation Constant, also referred to as K0.5. The values of the parameters are specific to a system. The Hill Equation can be linearized as follows.
(§5) The linear equation was fitted by plotting LHS of the above equation versus ln(X). The slope of the best fit line equation (linear regression) will yield the value of Hill's coefficient and the value of the intercept can be further used to evaluate the value of the half saturation constant, K. The Hill coefficient (n) determines the sensitivity of the response (steepness of the sigmoidal curve) and the half saturation constant (K) determines the threshold input needed for the response (equivalent to EC50 value).

[2] = system: Staphylococcus aureus ATCC 25923; test: as above; type: cell-based; details: for Hill coefficient n, Gram +ve (S. aureus 25923): Hill fit of % death after 18 h incubation vs peptide concentration; for EC50: Hill fit of % death after 18 h incubation, peptide concentration for 50% death, peptides tested in μM, unit inferred, read-out: half saturation constant K, Gram +ve (S. aureus 25923)
Experimental: as §1, §2, §3, §4, §5

[3] = system: Staphylococcus aureus ATCC 6538P; test: Antimicrobial assay, microdilution method (MIC); type: cell-based; details: value marked *: 50% inhibition, MH broth, 18 h, 37°C, OD600 nm, triplicates of three independent experiments
Experimental: as §1

[4] = system: Escherichia coli ATCC 25922; test: Antimicrobial assay, microdilution method (MIC); type: cell-based; details: MH broth, 10^5-10^6 c.f.u/ml, 18 h, 37°C, OD600 nm, tested 1 to 100 μM, average range from triplicates of three independent experiments
Experimental: as §1

[5] = microdilution, MH broth, 10^5-10^6 c.f.u/ml, 18 h, 37°C, OD600 nm, tested 1 to 100 μM, average range from triplicates of three independent experiments
[6] = value marked *: 50% inhibition, microdilution, MH broth, 18 h, 37°C, OD600 nm, triplicates of three independent experiments

| Compound | half saturation constant K, Human RBCs (human RBCs) | behavior of the kinetic (death rate) constant as a function of peptide concentration (S. aureus ATCC 25923) | time sufficient to reduce the cell number by half (S. aureus ATCC 25923; at 50µM of the peptide) | death rate constant at 50µM of the peptide (S. aureus ATCC 25923; first order, slope of log(c.f.u) vs time, 50 µM, two time points) | Hills coefficient of death rate constant vs peptide concentration (initial saturating phase) (S. aureus ATCC 25923) | half saturation constant of death rate constant vs peptide concentration (initial saturating phase) (S. aureus ATCC 25923) | Hill coefficient n, Gram −ve (E. coli 8739) [1] | EC50 [1] | Hill coefficient n, Gram +ve (S. aureus 25923) [2] | EC50 [2] | MIC, S. aureus 6538 P (* 50% inhibition) [3] | MIC, E. coli 25922 [4] | MIC, E. coli 8739 [1, 5] | MIC, S. aureus 25923 [2, 5] | MIC, E. coli 8739 (* 50% inhibition) [1, 6] | MIC, S. aureus 25923 (* 50% inhibition) [2, 6] |
| --- | --- | --- | --- | --- | --- | --- | --- | --- | --- | --- | --- | --- | --- | --- | --- | --- |
| CC[C@H](C)[C@H](NC(=O)[C@H](CCCCN)NC(=O)[C@H](CCCNC(=N)N)NC(=O)CNC(=O)[C@H](CC(C)C)NC(=O)[C@H](CO)NC(=O)[C@H](CCCNC(=N)N)NC(=O)[C@H](CC(C)C)NC(=O)CNC(=O)CNC(=O)CCCCCCCCCCCN)C(=O)N[C@@H](CC(C)C)C(=O)N[C@@H](CCCNC(=N)N)C(=O)N[C@@H](C)C(=O)N[C@@H](Cc1c[nH]c2ccccc12)C(=O)N[C@@H](CCCCN)C(=O)N[C@@H](CCCCN)C(=O)N[C@@H](Cc1ccc(O)cc1)C(=O)NCC(N)=O [BMAP28(1–18), reference compound] (H-[12Ado]GGLRSLGRKILRAWKKYG-NH2; N-terminus and C-terminus assumed) | 61.4 | biphasic behavior | about 40 s | about 60 h^-1 | 2.4 | 3.1 µM | 3.07 | 2.2 µM | 2.5 | 1.4 µM |  |  |  |  |  |  |
| VFLRILVRKIAPGVKKYG [P3, designed 18-residue MAP-family-like peptide, N-terminal amino-lauric acid and C-terminal amide] |  |  |  |  |  |  |  |  |  |  | 50–100^* μM | NA (NA-inactive upto 100μM) | NA (NA-inactive upto 100μM) | NA (NA-inactive upto 100μM) |  |  |
| CC[C@H](C)[C@H](NC(=O)CNC(=O)[C@H](CC(C)C)NC(=O)[C@@H](NC(=O)[C@@H](NC(=O)[C@H](CCCCN)NC(=O)[C@H](CCCNC(=N)N)NC(=O)[C@H](C)NC(=O)[C@H](CC(C)C)NC(=O)[C@H](C)NC(=O)[C@H](CCCNC(=N)N)NC(=O)[C@H](CC(C)C)NC(=O)[C@H](CC(C)C)NC(=O)[C@@H](NC(=O)CCCCCCCCCCCN)C(C)C)[C@@H](C)CC)[C@@H](C)O)C(=O)N[C@@H](CCCCN)C(=O)N[C@@H](CCCCN)C(=O)N[C@@H](Cc1ccc(O)cc1)C(=O)NCC(N)=O [P1] (H-[12Ado]VLLRALARKITLGIKKYG-NH2) | 170 | monophasic behavior |  |  | 2.3 | 8.4 µM | 1.02 | 26.6 µM | 1.2 | 3 µM |  |  |  |  |  |  |
| CILRWLARKIPWHAKKYG [P2, designed 18-residue MAP-family-like peptide, N-terminal amino-lauric acid and C-terminal amide] |  |  |  |  |  |  |  |  |  |  | 12.5–25^* μM | NA (NA-inactive upto 100μM) |  |  | 50–100^* μM | 50–100^* μM |
